Assays:
Schistosoma mansoni [1] = format: functional; design: scale not given here
Schistosoma mansoni [2] = format: functional; design: scale not given here; remark: listed apart in the source
Schistosoma mansoni [3] = format: functional; design: scale not given here; remark: listed apart in the source
Schistosoma mansoni [4] = assay: MMV: Toxicity @ 5 uM to 4-5 Schistosoma mansoni adult males after 24 h on a scale of 0 (none) - 4 (most). Includes short descriptors of effects as judged visually (PMID:19597541). Only those Malaria box 'drug-like' cpds yielding the most severe phenotypes vs. somules were tested. Caffrey group UCSF.; format: functional
Schistosoma mansoni [5] = assay: MMV: Toxicity @ 5 uM to 4-5 Schistosoma mansoni adult males after 48 h on a scale of 0 (none) - 4 (most). Includes short descriptors of effects as judged visually (PMID:19597541). Only those Malaria box 'drug-like' cpds yielding the most severe phenotypes vs. somules were tested. Caffrey group UCSF.; format: functional
Schistosoma mansoni [6] = assay: MMV: Toxicity @ 5 uM to 4-5 Schistosoma mansoni adult males after 72 h on a scale of 0 (none) - 4 (most). Includes short descriptors of effects as judged visually (PMID:19597541). Only those Malaria box 'drug-like' cpds yielding the most severe phenotypes vs. somules were tested. Caffrey group UCSF.; format: functional
Schistosoma mansoni [7] = assay: (§1) MMV: Motility assay. Percent change (relative to DMSO controls) @ 5 uM of movement of 4-5 Schistosoma mansoni adult males after 24 h as measured by the Consensus Voting Luminance Difference algorithm available on WormAssay (PMID:22303493). Occasional incongruence ocurrs between the motility scores and the visually adjudicated 'toxicity scores'. In these cases the 'toxicity score' should be prioritized. Only those Malaria box 'Drug-like' cpds yielding the most severe phenotypes vs. somules were tested. Caffrey group UCSF.; format: functional
Schistosoma mansoni [8] = assay: as §1, with “48” for “24”; format: functional
Schistosoma mansoni [9] = assay: as §1, with “72” for “24”; format: functional
Schistosoma mansoni [10] = test system: Schistosoma mansoni

| Structure (SMILES) | Toxicity (Schistosoma mansoni [1]) | Toxicity (Schistosoma mansoni [2]) | Toxicity (Schistosoma mansoni [3]) | Toxicity (Schistosoma mansoni [4]) | Toxicity (Schistosoma mansoni [5]) | Toxicity (Schistosoma mansoni [6]) | Motility (Schistosoma mansoni [7]) | Motility (Schistosoma mansoni [8]) | Motility (Schistosoma mansoni [9]) | Toxicity (Schistosoma mansoni [10]) |
| --- | --- | --- | --- | --- | --- | --- | --- | --- | --- | --- |
| Cc1cc(C)c2nc(N3CCC(C(=O)NCCCN4CCC(N5CCCCC5)CC4)CC3)sc2c1 | 4 | 4 | 4 | 0 | 0 | 0 | 97.4 | 125.2 | 117 |  |
| O=c1nc(C=Cc2ccc(Br)cc2)oc2ccccc12 | 2 | 2 | 2 | 0 | 0 | 0 | 132 | 98.7 | No effect |  |
| Br.CCN(CC)S(=O)(=O)c1ccc(-c2csc(Nc3ccc(C)c(C)c3)n2)cc1 | 2 | 2 | 2 | 2 | 2 | 4 | 21.8 | 3.9 | 2.5 |  |
| O=C(O)C(=O)O.Oc1ccc(Br)cc1CN1CCN(Cc2cccc(F)c2)CC1 | 1 | 1 | 1 | 1 | 1 | 1 | 233 | 202.5 | Overactive |  |
| Oc1c(CN2CCN(c3ccccc3F)CC2)cc(Br)c2cccnc12 | 0 | 4 | 4 | 3 | 4 | 4 | 231 | 54.2 | 54.8 |  |
| CCN(CC)CCn1c(=N)n(CC(O)c2ccc(Cl)c(Cl)c2)c2ccccc21.Cl (stereo not drawn) | 3 | 4 | 4 | 0 | 1 | 0 | 68.1 | 7.4 | 66.9 |  |
| CCN(CC)CCNc1ncnc2c1[nH]c1ccc(Br)cc12 | 4 | 4 | 4 | 0 | 0 | 0 | No effect | 119 | No effect |  |
| O=C(Nc1ccc(F)c(Cl)c1)Nc1ccc(Cl)c(Cl)c1 | 3 | 3 | 4 | 2 | 4 | 4 | 3.2 | 3.2 | 2.6 |  |
| Cl.N=c1n(CCN2CCCCC2)c2ccccc2n1CC(O)c1cccc(Br)c1 (stereo not drawn) | 2 | 2 | 4 | 0 | 0 | 0 | 92.2 | 74.8 | 114.5 |  |
| CN(C)CCCNCc1ccc(-c2ccc(F)c(Cl)c2)o1.Cl | 2 | 3 | 3 | 2 | 2 | 2 | 26.2 | 62.2 | 65.7 |  |
| CNCCCNc1ccnc2cc(Cl)ccc12 | 2 | 2 | 2 | 0 | 0 | 0 | 113.2 | 116.2 | No effect |  |
| COc1ccc(-c2nc3cc(Cc4ccc5[nH]c(-c6ccc(OC)cc6)nc5c4)ccc3[nH]2)cc1 | 3 | 4 | 4 | 3 | 3 | 4 | 17.2 | 24.7 | 12.4 |  |
| Cc1cc(N2CCCC2)nc(Nc2ccc(NC(=O)CCc3ccccc3)cc2)n1 | 0 | 4 | 4 | 2 | 3 | 1 | 28.9 | 104.8 | Slow |  |
| COCCNCC(O)Cn1c2ccc(Cl)cc2c2cc(Cl)ccc21 (stereo not drawn) | 4 | 4 | 4 | 0 | 0 | 0 | 94 | 94 | No effect |  |
| OC(CNC1CCCC1)Cn1c2ccccc2c2ccccc21 (stereo not drawn) | 1 | 4 | 4 | 0 | 0 | 0 | No effect | 83 | No effect |  |
| CC(C)OCc1cc(CN2CCN(c3cccc(Cl)c3)CC2)c(O)c2ncccc12 | 2 | 3 | 4 | 2 | 2 | 2 | 27.4 | 55.2 | 59.8 |  |
| CCOc1cc(Cl)c(C(C)NC(=O)c2cccc(OC)c2)cc1OCC (stereo not drawn) | 1 |  | 2 |  |  |  |  |  |  | No effect |
| Cc1cccc(-n2ncc3c(O)nc(-n4nc(C)cc4NC(=O)c4cc5ccccc5o4)nc32)c1 | 1 | 1 | 4 | 0 | 3 | 4 | 6 | 1 | Slow, on sides, dark, tegument damage |  |
| CC1CCN(Cc2ccc(NC(=O)c3cc4ccc5cccnc5c4[nH]3)cc2)CC1 | 0 | 4 | 4 | 0 | 0 | 0 | 138 | 97.2 | 110 |  |
| COc1ccc(CCN2CCC(CN(C)Cc3cnn(-c4ccccc4)c3)CC2)cc1 | 2 | 1 | 1 | 0 | 0 | 0 | 33.8 | 114.8 | 70.2 |  |
| COc1cc2c(cc1OC)C1=NNC(=O)C1=NC(C)(C)C2 | 0 | 4 | 4 | 0 | 0 | 0 | 140 | 120 | No effect |  |
| COc1ccc(Nc2nc(NCc3ccccc3)c3ccccc3n2)cc1 | 2 | 4 | 4 | 0 | 0 | 0 | 100 | 105.7 | No effect |  |
| CC(C)(C)CC(C)(C)NCC(O)COc1ccc2c(c1)CCC2.Cl (stereo not drawn) | 2 | 2 | 4 | 0 | 1 | 1 | 146 | 153 | overactive |  |
| COc1ccc(CNC2CCN(c3ccc(NC(=O)c4cccc(Cl)c4)cc3)CC2)cc1OC | 2 | 4 | 4 | 0 | 0 | 0 | 104.8 | 45.4 | 49 |  |
| CCN(CC)CCCNc1nc(-c2ccc(Cl)cc2)nc2ccccc12 | 2 | 4 | 4 | 0 | 0 | 0 | 86.7 | 99.5 | 56 |  |
| Cc1ccc(CN2CCC(C(=O)Nc3ccc(-c4cc5ccccc5[nH]4)cc3)CC2)o1 | 0 | 4 | 4 | 0 | 0 | 0 | 122.1 | 126.5 | No effect |  |
